Experimental data: US20240026461A1, “BCL10 MUTATIONS AS BIOMARKERS FOR TARGETED THERAPY IN B CELL LYMPHOMAS” (priority 2022, published 2024)
Changes are numbered by the printed parent chain. Names may count otherwise. Read-outs that look alike come from different tables or passages of the source.

Key:
HBL1^E140X = test: Growth inhibition assay (CellTiter Glo), HBL1 cells expressing BCL10 E140X; type: cell-based; details: Homo sapiens, 96 h
Procedure: (§1) DLBCL cell lines were cultured in exponential condition and the cell growth was determined by CellTiter Glo (Promega). 3000-5000 cells were seeded and cultured in each well of 384 well plate for 96 h and treated with compounds every 48 h. Luminescence was read at the endpoint with the Synergy NEO microplate reader (BioTek). The value of compound treated cells was normalized to their vehicle treated controls and then used to calculate IC50 in GraphPad Prism (RRID:SCR_002798).
(§2) Given the distinct functional profiles, CARD11 dependencies, and MALT1 activation effects of the BCL10 CARD and truncation mutants, the inventors designed experiments to evaluate whether, and to what extent, these mutant BCL10 proteins might confer BTK inhibitor resistance. Isogenic ABC-DLBCL cells expressing BCL10WT, BCL10^R58Q and BCL10^E140X proteins were treated with escalating doses of three chemically distinct covalent BTK inhibitors: ibrutinib, acalabrutinib, or zanubrutinib. The cellular proliferation rates of the treated cells were measured using an ATP fluorescence assay after 96 hours of drug exposure.
(§3) Isogenic BCL10^WT, BCL10^R58Q and BCL10^E140X ABC-DLBCLs were exposed to increasing concentrations of each of these compounds for 96 hours.

HBL1^R58Q = test: Growth inhibition assay (CellTiter Glo), HBL1 cells expressing BCL10 R58Q; type: cell-based; details: Homo sapiens, 96 h
Procedure: as §1, §2, §3

OCI-LY10^R58Q = test: Growth inhibition assay (CellTiter Glo), OCI-Ly10 cells expressing BCL10 R58Q; type: cell-based; details: Homo sapiens, 96 h
Procedure: as §1, §2, §3

OCI-LY10^E140X = test: Growth inhibition assay (CellTiter Glo), OCI-Ly10 cells expressing BCL10 E140X; type: cell-based; details: Homo sapiens, 96 h
Procedure: as §1, §2, §3

[1] = system: isogenic ABC-DLBCL cells expressing BCL10^WT, BCL10^R58Q and BCL10^E140X; test: Growth inhibition of isogenic ABC-DLBCL cells, response described in words; type: cell-based, human; details: 96 hours
Procedure: as §1, §2, §3

HBL1^WT = test: Growth inhibition assay (CellTiter Glo), HBL1 cells expressing BCL10 WT; type: cell-based; details: Homo sapiens, 96 h
Procedure: as §1, §2, §3

OCI-LY10^WT = test: Growth inhibition assay (CellTiter Glo), OCI-Ly10 cells expressing BCL10 WT; type: cell-based; details: Homo sapiens, 96 h
Procedure: as §1, §2, §3

[2] = biological target: T1, BCL10^R58Q (recombinant, full-length, after 3C cleavage of the MBP tag)
T1 chain: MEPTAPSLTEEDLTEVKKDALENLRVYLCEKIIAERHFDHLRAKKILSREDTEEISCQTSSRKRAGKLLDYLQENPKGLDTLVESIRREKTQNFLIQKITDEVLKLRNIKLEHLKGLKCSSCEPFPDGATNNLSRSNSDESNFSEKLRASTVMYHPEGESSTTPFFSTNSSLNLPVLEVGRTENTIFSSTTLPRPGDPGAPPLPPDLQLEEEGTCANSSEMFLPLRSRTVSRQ

[3] = biological target: T2, BCL10^E140X (recombinant, after 3C cleavage of the MBP tag)
T2 chain: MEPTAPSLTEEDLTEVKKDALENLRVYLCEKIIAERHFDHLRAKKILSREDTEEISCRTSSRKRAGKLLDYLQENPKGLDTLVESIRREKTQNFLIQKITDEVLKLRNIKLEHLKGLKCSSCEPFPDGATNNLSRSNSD

[4] = biological target: T3, BCL10^WT (recombinant, full-length, after 3C cleavage of the MBP tag)
T3 chain: T1 chain with Q58R

[5] = biological target: T4, Full length His-tagged MALT1 (human, UniProt Q9UDY8 2-824); test: negative staining EM of BCL10 filaments incubated with MALT1
T4 construct: mature; also called purified, full length MALT1; FL MALT1; not shown: His tag
T4 sequence (looked up): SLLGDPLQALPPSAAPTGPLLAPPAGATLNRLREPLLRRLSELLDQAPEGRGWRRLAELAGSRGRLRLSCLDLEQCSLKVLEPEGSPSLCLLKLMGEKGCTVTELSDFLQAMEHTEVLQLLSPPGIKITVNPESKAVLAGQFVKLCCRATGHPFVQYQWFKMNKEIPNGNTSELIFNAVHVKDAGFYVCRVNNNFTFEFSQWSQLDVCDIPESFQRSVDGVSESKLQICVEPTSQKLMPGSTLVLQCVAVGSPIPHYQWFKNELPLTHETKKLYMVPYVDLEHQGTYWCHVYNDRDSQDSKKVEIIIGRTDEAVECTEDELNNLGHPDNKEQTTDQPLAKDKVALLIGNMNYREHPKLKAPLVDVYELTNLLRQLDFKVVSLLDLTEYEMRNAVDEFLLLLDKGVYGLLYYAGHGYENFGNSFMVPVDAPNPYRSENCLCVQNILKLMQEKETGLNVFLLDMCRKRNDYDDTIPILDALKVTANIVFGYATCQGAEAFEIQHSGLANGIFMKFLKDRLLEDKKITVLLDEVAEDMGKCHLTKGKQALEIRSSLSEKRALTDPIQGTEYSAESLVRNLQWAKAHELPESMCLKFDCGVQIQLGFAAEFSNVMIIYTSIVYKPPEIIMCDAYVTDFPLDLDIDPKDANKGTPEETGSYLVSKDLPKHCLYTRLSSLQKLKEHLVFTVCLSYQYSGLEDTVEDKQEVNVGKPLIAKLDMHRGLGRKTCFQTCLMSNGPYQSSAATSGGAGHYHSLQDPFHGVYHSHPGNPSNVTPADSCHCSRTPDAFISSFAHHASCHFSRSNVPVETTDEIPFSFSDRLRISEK
Procedure: This new MALT1 binding domain is deleted from BCL10^E140X. The inventors next explored whether there was any impairment in MALT1 recruitment to BCL10 filaments, by generating BCL10^WT and BCL10^E140X filaments in vitro and incubating them with purified, full length MALT1 followed by negative staining electron microscopy (EM). […] However, this experiment may not provide sufficient resolution to show whether MALT1 distribution on the different BCL10 polymers was altered. Therefore, cryo-EM data were then collected on a Titan Krios microscope operating ats 300 keV and equipped with a Falcon II direct electron detector. The cryo-EM structure of BCL10^E140X filaments in complex with MALT1 was thus determined at 4.3 Å resolution.
Given that this new MALT1 binding domain is deleted from BCL10^E140X we next explored whether there was any impairment in MALT1 recruitment to BCL10 filaments, by generating BCL10^WT and BCL10^E140X filaments in vitro and incubating them with purified, full length MALT1 followed by negative staining EM. […] The structure of the BCL10^E140X filament with MALT1 was highly similar to that of the BCL10^WT filament with MALT1 at 4.9 Å resolution, in which the DDS of MALT1 bind the CARD of BCL10 and decorate the outside of the core CARD filament (FIG. 11G-I).

[6] = biological target: the molecule itself; test: confocal fluorescence microscopy of Alexa488-BCL10 filaments 4 h after 3C cleavage of MBP; self-association
Procedure: To determine the mechanism through which BCL10 mutants might confer a biochemical gain of function, full-length BCL10^WT, BCL10^E140X and BCL10^R58Q fused to a 3C protease-cleavable maltose binding protein (MBP) at the N-terminus to keep the proteins in a monomeric state were expressed and purified (FIG. 9A). The purified proteins were labeled with Alexa488 through cysteine residues in the unstructured C-terminal region. Spontaneous filament formation was then assessed by confocal fluorescence microscopy as a function of BCL10 concentration 4 h after mixing with the 3C protease to remove the MBP tag. […] The kinetics of filament formation by these proteins was imaged at […] concentration, which is above the concentration of polymerization for WT and these mutant BCL10 proteins using time lapse confocal fluorescence microscopy.

[7] = read-out: IC50, growth inhibition, MALT1 inhibitors
[8] = read-out: IC50, growth inhibition, BTK inhibitors

Work on `CO[C@H](c1c(NC(=O)Nc2cnc(-n3nccn3)c(Cl)c2)cnc2cc(Cl)nn12)[C@@H](C)OC` [MLT-748] yielded an IC50 (HBL1^E140X; [7]) of 540 ± 500 nM, an IC50 (HBL1^R58Q; [7]) of 3320 ± 1460 nM and an IC50 (OCI-LY10^R58Q; [7]) of 240 ± 50 nM. For the same molecule, the IC50 (OCI-LY10^E140X; [7]) was 90 ± 60 nM, the “growth response in words” value ([1]; BCL10^R58Q ABC-DLBCL cells) was “generally sensitive” and the “growth response in words” value ([1]; BCL10^WT ABC-DLBCL cells) was “generally sensitive”. The IC50 (HBL1^WT; [7]) was 1940 ± 200 nM and the IC50 (OCI-LY10^WT; [7]) was 70 ± 6 nM.

For `C=CC(=O)N1CCC([C@@H]2CCNc3c(C(N)=O)c(-c4ccc(Oc5ccccc5)cc4)nn32)CC1` [Zanubrutinib], the IC50 (HBL1^E140X; [8]) was 9.31 ± 6.22 nM, the IC50 (HBL1^R58Q; [8]) was 1.58 ± 0.06 nM and the IC50 (OCI-LY10^R58Q; [8]) was 1.81 ± 0.33 nM. The IC50 (OCI-LY10^E140X; [8]) was 2.86 ± 0.13 nM, the IC50 (HBL1^WT; [8]) was 1.46 ± 0.32 nM and the IC50 (OCI-LY10^WT; [8]) was 1.74 ± 0.08 nM.

In the case of `CC#CC(=O)N1CCC[C@H]1c1nc(-c2ccc(C(=O)Nc3ccccn3)cc2)c2c(N)nccn12` [Acalabrutinib], the IC50 (HBL1^E140X; [8]) is reported as 28.2 ± 21.2 nM, the IC50 (HBL1^R58Q; [8]) is reported as 5.54 ± 0.32 nM and the IC50 (OCI-LY10^R58Q; [8]) is reported as 7.69 ± 0.59 nM. The IC50 (OCI-LY10^E140X; [8]) was 5.39 ± 0.77 nM, the IC50 (HBL1^WT; [8]) was 4.75 ± 2.11 nM and the IC50 (OCI-LY10^WT; [8]) was 6.38 ± 0.35 nM.

B1: Full length His-tagged MALT1 (protein)
chain: T4 sequence (looked up)
In the case of B1, the “BCL10 polymerization kinetics by fluorescence quenching (3 µM Alexa488-BCL10, MALT1 at 0, 1.5, 3, 6 and 12 µM)” value (“BCL10 polymerization kinetics” below) [2] is reported as “increasing doses of MALT1 suppressed BCL10^WT and BCL10^R58Q filament formation in a dose dependent manner”, the “BCL10 polymerization kinetics” value [3] is reported as “there was little suppression of BCL10^E140X polymerization by MALT1 at any dose” and the “BCL10 polymerization kinetics” value [4] is reported as “increasing doses of MALT1 suppressed BCL10^WT and BCL10^R58Q filament formation in a dose dependent manner”.

B2: BCL10^WT (recombinant, full-length, after 3C cleavage of the MBP tag) (other)
chain: T1 chain with Q58R
modifications: Alexa488 (C5-maleimide) on cysteine residues in the confocal and quenching assays
notes: Made as His-MBP-3C site-BCL10 (vector pDB-His-MBP); MBP removed by 3C protease to start filament formation; Forms helical filaments (number of copies not fixed); also called BCL10 FL; BCL10 WT filaments
B2 was tested, and the binding result [5] was “binds” and the concentration of polymerization [6] was about 500 nM.

B3: BCL10^R58Q (recombinant, full-length, after 3C cleavage of the MBP tag) (other)
chain: T1 chain
modifications: Alexa488 (C5-maleimide) on cysteine residues in the confocal and quenching assays
notes: Made as His-MBP-3C site-BCL10; MBP removed by 3C protease; Forms filaments; also called R58Q filaments
In the case of B3, the concentration of polymerization [6] is reported as about 250 nM.

B4: BCL10^E140X (recombinant, after 3C cleavage of the MBP tag) (other)
chain: T2 chain
modifications: Alexa488 (C5-maleimide) on cysteine residues in the confocal and quenching assays
notes: Range 1-139 from the name E140X; Made as His-MBP-3C site-BCL10; MBP removed by 3C protease; also called E140X filaments; BCL10 (1-140)
B4 was tested, and the binding result [5] was “binds” and the concentration of polymerization [6] was at most 100 nM.
